Laboratory results as given in patent US10766869B2, “Triazoles for the treatment of demyelinating dieases” (Vertex Pharmaceuticals Incorporated, priority 2015, dated 2020).
Read-outs that look alike come from different tables or passages of the source.

Test system: primary rat mixed cortical cells
Assay: In vitro myelination assay (MBP positive myelin strands, fold myelin pixels above background)
Type: cell-based
Details: Rattus norvegicus; for fold induction at 1 µM: 1.0 μM compound; for fold induction at 10 µM: 10.0 μM compound
How it was run: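 Read-out is total MBP-positive myelin strand pixels per well, detected by custom ridge-tracing software and reported as fold over untreated baseline. Primary P1 rat mixed cortical cells received compound (1.0 or 10.0 μM) for 14 days, with medium half-replaced on days 6 and 10. Standard deviation was taken across all replicates.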

[1] = read-out: Fold myelin pixels above background relative to baseline of no added compound
[2] = relative to baseline of no added compound, read-out: Fold myelin pixels above background
[3] = relative to baseline of no added compound, read-out: Fold myelin pixels above background, 1.0 μM
[4] = relative to baseline of no added compound, read-out: Fold myelin pixels above background, 10.0 μM

SMILES | fold induction at 1 µM [2] | fold induction at 10 µM [2] | other results
Cc1cc(Nc2ncn(-c3cc(F)cc(F)c3)n2)c(F)c(NC2CCCC2N2CCOCC2)c1 (stereo not drawn) [Compound 1007, N3-[1-(3,5-difluorophenyl)-1,2,4-triazol-3-yl]-2-fluoro-5-methyl-N1-(2-morpholinocyclopentyl)benzene-1,3-diamine] | – | – | fold induction at 1 µM [1]: 1 to 10; fold induction at 10 µM [1]: 10 to 100
Cc1cc(Nc2ncn(-c3ccc(OC(F)(F)F)cc3)n2)cc(N2CCN(C3COC3)CC2)c1 [Compound 478, N-[3-methyl-5-[4-(oxetan-3-yl)piperazin-1-yl]phenyl]-1-[4-(trifluoromethoxy)phenyl]-1,2,4-triazol-3-amine] | 1 to 10 | 1 to 10 | –
Cc1cc(Nc2ncn(-c3cc(F)cc(F)c3)n2)cc(N2CCN(C(=O)C3CC3)CC2)c1 [Compound 458] | 1000 to 10000 | 100 to 1000 | –
FC(F)c1cc(Nc2ncn(-c3cccc(C(F)(F)F)c3)n2)nc(N2CCN(C3COC3)CC2)c1 [Compound 680, 4-(difluoromethyl)-6-[4-(oxetan-3-yl)piperazin-1-yl]-N-[1-[3-(trifluoromethyl)phenyl]-1,2,4-triazol-3-yl]pyridin-2-amine] | 10 to 100 | 10 to 100 | –
Cc1cc(Nc2ncn(-c3ccccc3)n2)cc(Nc2ncc(C)o2)c1 [Compound 1049, 5-methyl-N1-(5-methyloxazol-2-yl)-N3-(1-phenyl-1,2,4-triazol-3-yl)benzene-1,3-diamine] | – | – | fold induction at 1 µM [1]: 1 to 10; fold induction at 10 µM [1]: 10 to 100
Cc1cc(Nc2ncn(-c3cc(F)cc(F)c3)n2)cc(N2CCN(CC3CCCO3)CC2)c1 (stereo not drawn) [Compound 914, 1-(3,5-difluorophenyl)-N-[3-methyl-5-[4-(tetrahydrofuran-2-ylmethyl)piperazin-1-yl]phenyl]-1,2,4-triazol-3-amine] | – | – | fold induction at 1 µM [1]: 10 to 100; fold induction at 10 µM [1]: ≤ 1
Cc1cc(NCCC2CCCO2)cc(Nc2ncn(-c3cc(F)cc(F)c3)n2)c1 (stereo not drawn) [Compound 496, N1-[1-(3,5-difluorophenyl)-1,2,4-triazol-3-yl]-5-methyl-N3-(2-tetrahydrofuran-2-ylethyl)benzene-1,3-diamine] | 100 to 1000 | 1 to 10 | –
FC(F)(F)c1cc(Nc2ncn(-c3cnccn3)n2)cc(N2CCC(C3COC3)CC2)c1 [Compound 507, N-[3-[4-(oxetan-3-yl)-1-piperidyl]-5-(trifluoromethyl)phenyl]-1-pyrazin-2-yl-1,2,4-triazol-3-amine] | 10 to 100 | 100 to 1000 | –
Cc1cc(Nc2ncn(-c3ccc(C(F)(F)F)cc3)n2)cc(N2CCN(C3COC3)CC2)c1 [Compound 191] | – | – | fold induction at 1 µM [3]: ≤ 1; fold induction at 10 µM [4]: 1 to 10
CN1CCN(c2cc(Nc3ncn(-c4ccc(F)c(F)c4)n3)cc(Cl)n2)CC1 [Compound 477, 2-chloro-N-[1-(3,4-difluorophenyl)-1,2,4-triazol-3-yl]-6-(4-methylpiperazin-1-yl)pyridin-4-amine] | 10 to 100 | ≤ 1 | –
Cc1cc(Nc2ncn(-c3ccccc3)n2)cc(C2CCCNC2)c1 (stereo not drawn) [Compound 316, N-[3-methyl-5-(3-piperidyl)phenyl]-1-phenyl-1,2,4-triazol-3-amine] | – | – | fold induction at 1 µM [3]: 100 to 1000; fold induction at 10 µM [4]: ≤ 1
Cc1cc(Nc2ncn(-c3ccccc3Cl)n2)cc(N2CCN(C3COC3)CC2)c1 [Compound 446, 1-(2-chlorophenyl)-N-[3-methyl-5-[4-(oxetan-3-yl)piperazin-1-yl]phenyl]-1,2,4-triazol-3-amine] | 1 to 10 | 1000 to 10000 | –
Cc1cc(Nc2ncn(-c3cc(F)cc(F)c3)n2)cc(N2CC[C@H](N3CCCC3)C2)c1 [Compound 986, 1-(3,5-difluorophenyl)-N-[3-methyl-5-[(3S)-3-pyrrolidin-1-ylpyrrolidin-1-yl]phenyl]-1,2,4-triazol-3-amine] | – | – | fold induction at 1 µM [1]: 1 to 10; fold induction at 10 µM [1]: ≤ 1
CS(=O)(=O)c1cc(Nc2ncn(-c3cccc(F)c3)n2)cc(N2CCN(C3COC3)CC2)c1 [Compound 361, 1-(3-fluorophenyl)-N-[3-methylsulfonyl-5-[4-(oxetan-3-yl)piperazin-1-yl]phenyl]-1,2,4-triazol-3-amine] | – | – | fold induction at 1 µM [3]: 100 to 1000; fold induction at 10 µM [4]: ≤ 1
CCN(CC)C(=O)C1CN(c2cc(C)cc(Nc3ncn(-c4cc(F)cc(F)c4)n3)c2)C1 [Compound 817, 1-[3-[[1-(3,5-difluorophenyl)-1,2,4-triazol-3-yl]amino]-5-methyl-phenyl]-N,N-diethyl-azetidine-3-carboxamide] | – | – | fold induction at 1 µM [1]: 10 to 100; fold induction at 10 µM [1]: 10 to 100
CC(F)(F)c1cc(Nc2ncn(-c3cc(F)cc(F)c3)n2)nc(N2CCN(C3COC3)CC2)c1 [Compound 685, 4-(1,1-difluoroethyl)-N-[1-(3,5-difluorophenyl)-1,2,4-triazol-3-yl]-6-[4-(oxetan-3-yl)piperazin-1-yl]pyridin-2-amine] | 10 to 100 | 1 to 10 | –
Cc1cc(Nc2ncn(-c3cc(F)cc(F)c3)n2)cc(N2CCOC3(CCOCC3)CC2)c1 [Compound 906, 1-(3,5-difluorophenyl)-N-[3-(3,7-dioxa-10-azaspiro[5.6]dodecan-10-yl)-5-methyl-phenyl]-1,2,4-triazol-3-amine] | – | – | fold induction at 1 µM [1]: 10 to 100; fold induction at 10 µM [1]: 1 to 10
Cc1cc(Nc2ncn(-c3cc(F)cc(F)c3)n2)cc([C@H]2CCN(C3COC3)C2)c1 (single isomer, unassigned) [Compound 473] | 100 to 1000 | 1 to 10 | –
Cc1cc(Nc2ncn(-c3cc(F)cc(F)c3)n2)cc(N2CC(C)(C#N)C2)c1 [Compound 1076, 1-[3-[[1-(3,5-difluorophenyl)-1,2,4-triazol-3-yl]amino]-5-methyl-phenyl]-3-methyl-azetidine-3-carbonitrile] | – | – | fold induction at 1 µM [1]: 10 to 100; fold induction at 10 µM [1]: ≤ 1
CCc1cc(Nc2ncn(-c3ccc(F)c(F)c3)n2)cc(N2CCN(C3(C)COC3)CC2)c1 [Compound 577, 1-(3,4-difluorophenyl)-N-[3-ethyl-5-[4-(3-methyloxetan-3-yl)piperazin-1-yl]phenyl]-1,2,4-triazol-3-amine] | 10 to 100 | 10 to 100 | –
N#Cc1cc(Nc2ncn(-c3cccc(F)c3)n2)cc(N2CCOCC2)c1 [Compound 737, 3-[[1-(3-fluorophenyl)-1,2,4-triazol-3-yl]amino]-5-morpholino-benzonitrile] | 10 to 100 | 10 to 100 | –
Cc1cc(Nc2ncn(-c3ccccc3)n2)cc(N2CC(CC(C)C)N3CCC[C@@H]3C2)c1 (stereo partly drawn) [Compound 152, N-[3-[(8aR)-4-isobutyl-3,4,6,7,8,8a-hexahydro-1H-pyrrolo[1,2-a]pyrazin-2-yl]-5-methyl-phenyl]-1-phenyl-1,2,4-triazol-3-amine] | – | – | fold induction at 1 µM [3]: ≤ 1; fold induction at 10 µM [4]: ≤ 1
CC(=O)N1CCC(c2cc(C)cc(Nc3ncn(-c4ccccc4)n3)c2)C1 (stereo not drawn) [Compound 443, 1-[3-[3-methyl-5-[(1-phenyl-1,2,4-triazol-3-yl)amino]phenyl]pyrrolidin-1-yl]ethanone] | 1000 to 10000 | ≤ 1 | –
Cc1cc(Nc2ncn(-c3cc(F)cc(F)n3)n2)cc(N2CCN(C3COC3)CC2)c1 [Compound 329, 1-(4,6-difluoro-2-pyridyl)-N-[3-methyl-5-[4-(oxetan-3-yl)piperazin-1-yl]phenyl]-1,2,4-triazol-3-amine] | – | – | fold induction at 1 µM [3]: 1 to 10; fold induction at 10 µM [4]: 10 to 100
